Source: ChEMBL document CHEMBL1142325, “Discovery of a novel series of biphenyl benzoic acid derivatives as potent and selective human beta3-adrenergic receptor agonists with good oral bioavailability. Part I” (J Med Chem, 2008)

Columns and labels:
in vitro = settings: PAMPA, pH 6.5
[1] = Bioavailability in monkey at 0.32 mg/kg, po by cassette assay; type: ADME, organism-based, Macaca mulatta; settings: rhesus monkey, in vivo
[2] = Total clearance in monkey at 0.32 mg/kg, iv by cassette assay; type: ADME, organism-based, Macaca mulatta; parameters: dose 0.32 mg/kg, route intravenous; settings: rhesus monkey, in vivo
[3] = Cmax in rat at 0.32 mg/kg, po by cassette assay; type: ADME, organism-based; parameters: dose 0.32 mg/kg, route oral; settings: in vivo
[4] = AUC (0 to 24 hrs) in rat at 0.32 mg/kg, po by cassette assay; type: ADME, organism-based; parameters: time < 24 hr, dose 0.32 mg/kg, route oral; settings: plasma
[5] = Cmax in monkey at 0.32 mg/kg, po by cassette assay; type: ADME, organism-based, Macaca mulatta; parameters: dose 0.32 mg/kg, route oral; settings: rhesus monkey, in vivo
[6] = AUC (0 to 24 hrs) in monkey at 0.32 mg/kg, po by cassette assay; type: ADME, organism-based, Macaca mulatta, Plasma; parameters: time < 24 hr, dose 0.32 mg/kg, route oral; settings: rhesus monkey, plasma
[7] = Intrinsic clearance in dog liver microsome; type: ADME, Canis lupus familiaris; settings: liver microsomes
[8] = Intrinsic clearance in human liver microsome; type: ADME; settings: liver microsomes
[9] = Cmax in dog at 0.1 mg/kg, po by cassette assay; type: ADME, organism-based, Canis lupus familiaris; parameters: dose 0.1 mg/kg, route oral; settings: in vivo
[10] = AUC (0 to 24 hrs) in dog at 0.1 mg/kg, po by cassette assay; type: ADME, organism-based, Canis lupus familiaris; parameters: time < 24 hr, dose 0.1 mg/kg, route oral; settings: plasma
[11] = Terminal half life in dog at 0.1 mg/kg, iv by cassette assay; type: ADME, organism-based, Canis lupus familiaris; parameters: dose 0.1 mg/kg, route intravenous; settings: in vivo, read-out: beta t1/2 (converted)
[12] = Total clearance in dog at 0.1 mg/kg, iv by cassette assay; type: ADME, organism-based, Canis lupus familiaris; parameters: dose 0.1 mg/kg, route intravenous; settings: in vivo
[13] = Bioavailability in dog at 0.1 mg/kg, po by cassette assay; type: ADME, organism-based, Canis lupus familiaris; settings: in vivo
[14] = Terminal half life in rat at 0.32 mg/kg, iv by cassette assay; type: ADME, organism-based; parameters: dose 0.32 mg/kg, route intravenous; settings: in vivo, read-out: beta t1/2 (converted)
[15] = Total clearance in rat at 0.32 mg/kg, iv by cassette assay; type: ADME, organism-based; parameters: dose 0.32 mg/kg, route intravenous; settings: in vivo
[16] = Bioavailability in rat at 0.32 mg/kg, po by cassette assay; type: ADME, organism-based; settings: in vivo
[17] = Terminal half life in monkey at 0.32 mg/kg, iv by cassette assay; type: ADME, organism-based, Macaca mulatta; parameters: dose 0.32 mg/kg, route intravenous; settings: rhesus monkey, in vivo, read-out: beta t1/2 (converted)
[18] = Oral bioavailability in monkey; type: ADME, organism-based, Macaca mulatta; settings: rhesus monkey, in vivo

## COc1cc(-c2ccc(CCNC[C@H](O)c3cccc(Cl)c3)cc2)ccc1C(=O)O
In vitro
  Papp: 3.3 ×10⁻⁶ cm/s

## O=C(O)c1ccc(-c2ccc(CCNC[C@H](O)c3ccccc3)cc2)cc1OC1CCCCC1
In vitro
  Papp: > 30 ×10⁻⁶ cm/s

## CC(C)Oc1cc(-c2ccc(CCNC[C@H](O)c3cccc(Cl)c3)cc2)ccc1C(=O)O
[1]
  bioavailability: 83%
[2]
  clearance: 0.9 mL/min/kg
[3]
  Cmax: 146 ng/mL
[4]
  AUC(0-t) at 24 h: 700 ng·h/mL
[5]
  Cmax: 171 ng/mL
[6]
  AUC(0-t) at 24 h: 4980 ng·h/mL
[7]
  CLint scaled: < 1 mL/min/kg
[8]
  CLint scaled: < 1 mL/min/kg
[9]
  Cmax: 13 ng/mL
[10]
  AUC(0-t) at 24 h: 149 ng·h/mL
[11]
  half-life: 9.9 h
[12]
  clearance: 4.9 mL/min/kg
[13]
  bioavailability: 45%
[14]
  half-life: 4.8 h
[15]
  clearance: 4.4 mL/min/kg
[16]
  bioavailability: 61%
[17]
  half-life: 18.6 h
In vitro
  Papp: > 30 ×10⁻⁶ cm/s

## CC(C)Cc1cc(-c2ccc(CCNC[C@H](O)c3ccccc3)cc2)ccc1C(=O)O
In vitro
  Papp: 26 ×10⁻⁶ cm/s

## CC(C)Sc1cc(-c2ccc(CCNC[C@H](O)c3ccccc3)cc2)ccc1C(=O)O
In vitro
  Papp: 10 ×10⁻⁶ cm/s

## O=C(O)c1cccc(-c2cccc(NCCNC[C@H](O)c3cccc(Cl)c3)c2)c1 [SOLABEGRON]
[18]
  bioavailability: 46%
